Test results as given in ChEMBL document CHEMBL3217530, “Synthesis of coumarinchalcone hybrids and evaluation of their antioxidant and trypanocidal properties” (2013).
Active and inactive are the calls of the source. No cut-off for these calls is given here.

Tests used:
Trypanosoma cruzi [1] = assay: Antitrypanosomal activity against Trypanosoma cruzi Dm28c epimastigotes assessed as non-viable epimastigotes at 10 umol/L after 4 hrs by MTT assay relative to untreated control; format: functional
Trypanosoma cruzi [2] = assay: Antitrypanosomal activity against Trypanosoma cruzi Dm28c epimastigotes assessed as non-viable epimastigotes at 100 umol/L after 4 hrs by MTT assay relative to untreated control; format: functional
[3] = Antioxidant activity assessed as hydroxyl radical scavenging activity after 5 mins by ESR spectroscopy; set-up: concentration or dose not given beside the values
[4] = Antioxidant activity assessed as compound compete with DMPO for hydroxyl radicals by ESR assay; format: functional

O=C(c1ccc(O)c(O)c1)c1cc2c(O)cc(O)cc2oc1=O
Activity (Trypanosoma cruzi [1]): inactive
Activity (Trypanosoma cruzi [2]): inactive
Activity [3]: 84.2%

CC1CS(=O)(=O)CCN1/N=C/c1ccc([N+](=O)[O-])o1 (stereo not drawn) [NIFURTIMOX]
Activity (Trypanosoma cruzi [1]): 52.5%
Activity (Trypanosoma cruzi [2]): 100%

O=C(c1ccc(O)c(O)c1)c1cc2cc(Br)cc(O)c2oc1=O
Activity (Trypanosoma cruzi [1]): 9.5%
Activity (Trypanosoma cruzi [2]): 24.1%
Activity [4]: Active
Activity [3]: 90.9%

O=C(c1ccc(O)c(O)c1)c1cc2cc(O)ccc2oc1=O
Activity (Trypanosoma cruzi [1]): 18.9%
Activity (Trypanosoma cruzi [2]): 46.4%
Activity [3]: 84.8%

O=C(c1ccc(O)c(O)c1)c1cc2ccccc2oc1=O
Activity (Trypanosoma cruzi [1]): 23.8%
Activity (Trypanosoma cruzi [2]): 38.7%
Activity [3]: 84.6%

Cc1ccc2oc(=O)c(C(=O)c3ccc(O)c(O)c3)cc2c1
Activity (Trypanosoma cruzi [1]): 27.9%
Activity (Trypanosoma cruzi [2]): 47.9%
Activity [3]: 82.1%
